Results as given in ChEMBL document CHEMBL6134817, “Novel gut-restricted bivalent agonists targeting mucosal 5-HT4R: Design, synthesis, and biological evaluation” (Eur J Med Chem, 2025).
Active and inactive are the calls of the source. The rule behind the calls is not given here.

Legend:
[1] = molecular target: Voltage-gated inwardly rectifying potassium channel KCNH2 (Homo sapiens, UniProt Q12809); test: Inhibition of hERG stably expressed in HEK293 cells by patch-clamp method; assay type: toxicity, cell-based
[2] = Drug excretion in feces of fasted male Sprague-Dawley rat at 5 mg/kg, po measured for 24 hrs by LC-MS/MS analysis; assay type: ADME, organism-based; details: faeces, read-out: Drug excretion
[3] = Drug excretion in fasted male Sprague-Dawley rat at 5 mg/kg, po measured for 24 hrs by LC-MS/MS analysis; assay type: ADME, organism-based; details: in vivo, read-out: Drug excretion
[4] = molecular target: T1, 5-hydroxytryptamine receptor 4 (Homo sapiens, UniProt Q13639); test: Inhibition of 5-HT4R (unknown origin)
Mus musculus [5] = test: Induction of whole-gut transit in mouse assessed as decrease in time for carmine red dye excretion administered orally via gavage measured for every 5 mins; assay type: functional, organism-based; details: dose 3-15 mg/kg, route po
[6] = molecular target: T2, 5-hydroxytryptamine receptor 1A (Homo sapiens, UniProt P08908); test: Inhibition of 5-HT1AR (unknown origin)
T2 sequence (P08908 whole entry): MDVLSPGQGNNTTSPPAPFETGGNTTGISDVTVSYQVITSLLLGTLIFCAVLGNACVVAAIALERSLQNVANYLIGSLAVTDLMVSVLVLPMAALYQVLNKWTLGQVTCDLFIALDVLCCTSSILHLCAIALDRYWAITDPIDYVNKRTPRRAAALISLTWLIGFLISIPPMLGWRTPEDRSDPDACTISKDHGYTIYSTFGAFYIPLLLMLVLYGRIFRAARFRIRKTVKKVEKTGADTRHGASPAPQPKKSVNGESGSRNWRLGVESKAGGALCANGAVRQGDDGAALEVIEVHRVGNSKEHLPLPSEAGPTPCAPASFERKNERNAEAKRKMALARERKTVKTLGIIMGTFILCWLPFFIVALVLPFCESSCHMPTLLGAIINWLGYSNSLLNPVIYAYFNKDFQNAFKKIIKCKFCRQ

[7] = Metabolic stability in human liver microsomes assessed as half life at 10 uM measured up to 60 mins in presence of NADPH by LC-MS/MS analysis; assay type: ADME, Microsome
[8] = molecular target: T1, 5-hydroxytryptamine receptor 4; test: Agonist activity at full-length human 5-HT4R stably expressed in HEK293 cells assessed as increase in intracellular cAMP level incubated for 30 mins under dark condition by reporter gene assay relative to control; assay type: functional, cell-based; details: filed as agonist
[9] = Metabolic stability in rat liver microsomes assessed as intrinsic clearance measured per mg protein at 10 uM measured up to 60 mins in presence of NADPH by LC-MS/MS analysis; assay type: ADME, Microsome; details: read-out: CLH
[10] = Metabolic stability in mouse liver microsomes assessed as intrinsic clearance measured per mg protein at 10 uM measured up to 60 mins in presence of NADPH by LC-MS/MS analysis; assay type: ADME, Microsome; details: read-out: CLH
[11] = Permeability of compound assessed as compound recovery at 10 uM incubated for 4 hrs by PAMPA; assay type: ADME; details: read-out: Drug recovery
[12] = Metabolic stability in human liver microsomes assessed as intrinsic clearance measured per mg protein at 10 uM measured up to 60 mins in presence of NADPH by LC-MS/MS analysis; assay type: ADME, Microsome; details: read-out: CLH
[13] = molecular target: T1, 5-hydroxytryptamine receptor 4; test: Displacement of [3H]-GR113808 from full-length human 5-HT4R stably expressed in HEK293 cell membrane by MicroBeta2 Reader analysis; assay type: cell membranes
[14] = molecular target: T3, 5-hydroxytryptamine receptor 2C (Homo sapiens, UniProt P28335); test: Inhibition of 5-HT2CR (unknown origin)
T3 sequence (P28335 whole entry): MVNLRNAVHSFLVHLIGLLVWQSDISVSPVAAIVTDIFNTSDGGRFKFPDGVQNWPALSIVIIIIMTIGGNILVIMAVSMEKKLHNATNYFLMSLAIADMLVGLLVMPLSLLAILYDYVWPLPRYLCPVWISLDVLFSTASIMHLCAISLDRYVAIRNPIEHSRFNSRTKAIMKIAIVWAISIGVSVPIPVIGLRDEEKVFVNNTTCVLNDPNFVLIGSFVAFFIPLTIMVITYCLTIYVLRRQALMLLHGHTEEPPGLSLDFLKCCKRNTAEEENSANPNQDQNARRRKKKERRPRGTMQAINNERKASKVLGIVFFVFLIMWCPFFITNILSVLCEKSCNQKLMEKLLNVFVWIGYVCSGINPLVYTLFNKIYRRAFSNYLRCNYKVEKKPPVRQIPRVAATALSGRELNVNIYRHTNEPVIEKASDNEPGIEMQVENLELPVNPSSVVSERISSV

[15] = Metabolic stability in mouse liver microsomes assessed as half life at 10 uM measured up to 60 mins in presence of NADPH by LC-MS/MS analysis; assay type: ADME, Microsome
[16] = Metabolic stability in rat liver microsomes assessed as half life at 10 uM measured up to 60 mins in presence of NADPH by LC-MS/MS analysis; assay type: ADME, Microsome
[17] = molecular target: 5-hydroxytryptamine receptor 2B (Homo sapiens, UniProt P41595); test: Inhibition of 5-HT2BR (unknown origin)
[18] = Stability in mouse plasma assessed as half life measured up to 120 mins by LC-MS/MS analysis; assay type: ADME, cell-free
[19] = molecular target: 5-hydroxytryptamine receptor 5A (Homo sapiens, UniProt P47898); test: Inhibition of 5-HT5R (unknown origin)
Mus musculus [20] = test: Anti-constipation effect in mouse assessed as increase in fecal water content at 3 to 10 mg/kg, po measured after 1 hr; assay type: functional, organism-based; details: dose 3-10 mg/kg
[21] = Stability in SIF at pH 6.8 assessed as half life by LC-MS/MS analysis; assay type: physicochemical
[22] = molecular target: 5-hydroxytryptamine receptor 1B (Homo sapiens, UniProt P28222); test: Inhibition of 5-HT1BR (unknown origin)
[23] = molecular target: 5-hydroxytryptamine receptor 2A (Homo sapiens, UniProt P28223); test: Inhibition of 5-HT2AR (unknown origin)
Mus musculus [24] = test: Anti-constipation effect in mouse assessed as decrease in bead expulsion time at 3 to 15 mg/kg, po pretreated with compound 1 hr prior to glass bead insertion into distal colon measured after regaining conscious; assay type: functional, organism-based; details: dose 3-15 mg/kg
[25] = Stability in SGF at pH 1.5 assessed as half life by LC-MS/MS analysis; assay type: physicochemical
[26] = molecular target: 5-hydroxytryptamine receptor 7 (Homo sapiens, UniProt P34969); test: Inhibition of 5-HT7R (unknown origin)
[27] = molecular target: 5-hydroxytryptamine receptor 6 (Homo sapiens, UniProt P50406); test: Inhibition of 5-HT6R (unknown origin)
Mus musculus [28] = test: Anti-constipation effect in mouse assessed as increase in fecal output at 3 to 10 mg/kg, po measured after 1 hr; assay type: functional, organism-based; details: dose 3-10 mg/kg
[29] = Cmax in fasted male C57BL/6J mouse at 10 mg/kg, po measured after 1 hr by LC-MS/MS analysis; assay type: ADME, organism-based; details: in vivo
[30] = Apparent permeability coefficient of compound at 10 uM incubated for 4 hrs by PAMPA; assay type: ADME
[31] = molecular target: T1, 5-hydroxytryptamine receptor 4; test: Agonist activity at full-length human 5-HT4R stably expressed in HEK293 cells assessed as increase in intracellular cAMP level incubated for 30 mins under dark condition by reporter gene assay; assay type: functional, cell-based
[32] = molecular target: Serotonin 3 (5-HT3) receptor; test: Inhibition of 5-HT3R (unknown origin); assay type: protein-complex assay, Homo sapiens

T1 sequence (Q13639 whole entry): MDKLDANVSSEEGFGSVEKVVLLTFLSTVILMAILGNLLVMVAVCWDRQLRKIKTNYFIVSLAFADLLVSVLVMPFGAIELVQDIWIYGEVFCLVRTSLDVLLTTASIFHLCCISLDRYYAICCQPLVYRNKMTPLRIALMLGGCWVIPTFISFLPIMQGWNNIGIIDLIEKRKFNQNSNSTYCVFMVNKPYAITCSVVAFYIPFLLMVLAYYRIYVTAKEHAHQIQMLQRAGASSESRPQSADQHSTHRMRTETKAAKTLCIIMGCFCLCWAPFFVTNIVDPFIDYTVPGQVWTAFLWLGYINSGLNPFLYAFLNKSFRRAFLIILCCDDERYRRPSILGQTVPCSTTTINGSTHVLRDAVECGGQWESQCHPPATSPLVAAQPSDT
Sequence of 5-hydroxytryptamine receptor 2A (P28223 whole entry): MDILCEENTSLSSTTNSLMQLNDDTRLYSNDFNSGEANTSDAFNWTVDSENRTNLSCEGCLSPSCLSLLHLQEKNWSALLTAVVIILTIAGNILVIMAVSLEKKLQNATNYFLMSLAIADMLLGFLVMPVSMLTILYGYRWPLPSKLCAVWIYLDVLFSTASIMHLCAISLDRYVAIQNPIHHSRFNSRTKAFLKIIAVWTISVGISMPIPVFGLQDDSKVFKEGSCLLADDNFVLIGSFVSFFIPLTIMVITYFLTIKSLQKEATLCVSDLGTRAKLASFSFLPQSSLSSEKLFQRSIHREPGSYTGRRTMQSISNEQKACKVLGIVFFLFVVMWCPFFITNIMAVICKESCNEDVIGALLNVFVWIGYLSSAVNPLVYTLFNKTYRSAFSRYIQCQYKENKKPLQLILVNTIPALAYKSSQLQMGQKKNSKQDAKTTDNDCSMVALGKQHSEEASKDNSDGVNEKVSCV
Sequence of Voltage-gated inwardly rectifying potassium channel KCNH2 (Q12809 whole entry): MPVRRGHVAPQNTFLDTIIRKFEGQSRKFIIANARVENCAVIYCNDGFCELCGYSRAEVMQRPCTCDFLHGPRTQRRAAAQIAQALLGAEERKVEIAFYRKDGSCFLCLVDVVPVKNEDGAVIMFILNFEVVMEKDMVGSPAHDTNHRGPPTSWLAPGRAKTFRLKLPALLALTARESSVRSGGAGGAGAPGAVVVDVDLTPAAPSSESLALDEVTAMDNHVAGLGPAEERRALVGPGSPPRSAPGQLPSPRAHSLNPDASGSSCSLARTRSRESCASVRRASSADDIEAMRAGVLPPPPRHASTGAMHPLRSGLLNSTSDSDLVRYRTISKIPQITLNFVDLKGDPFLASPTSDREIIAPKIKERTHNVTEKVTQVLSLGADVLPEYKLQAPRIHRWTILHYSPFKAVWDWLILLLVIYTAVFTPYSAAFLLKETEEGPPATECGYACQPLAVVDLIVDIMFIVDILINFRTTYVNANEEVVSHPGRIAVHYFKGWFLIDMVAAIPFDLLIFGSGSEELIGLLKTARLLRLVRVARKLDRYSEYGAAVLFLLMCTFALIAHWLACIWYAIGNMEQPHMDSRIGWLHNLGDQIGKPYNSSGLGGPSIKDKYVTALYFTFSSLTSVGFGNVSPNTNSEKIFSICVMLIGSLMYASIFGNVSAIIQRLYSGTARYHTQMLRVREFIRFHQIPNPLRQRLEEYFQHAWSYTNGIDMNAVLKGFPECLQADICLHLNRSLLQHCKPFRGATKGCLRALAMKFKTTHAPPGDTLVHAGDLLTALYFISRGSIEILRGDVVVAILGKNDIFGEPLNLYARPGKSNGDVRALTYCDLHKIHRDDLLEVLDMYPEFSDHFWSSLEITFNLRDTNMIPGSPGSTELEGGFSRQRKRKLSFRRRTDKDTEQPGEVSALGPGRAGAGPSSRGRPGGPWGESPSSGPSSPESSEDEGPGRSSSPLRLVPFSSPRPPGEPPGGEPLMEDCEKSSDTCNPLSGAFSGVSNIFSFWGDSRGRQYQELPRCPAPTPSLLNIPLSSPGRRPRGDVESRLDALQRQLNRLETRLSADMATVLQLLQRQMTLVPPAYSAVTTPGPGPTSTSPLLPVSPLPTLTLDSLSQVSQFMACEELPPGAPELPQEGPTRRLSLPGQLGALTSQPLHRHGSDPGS
Sequence of 5-hydroxytryptamine receptor 5A (P47898 whole entry): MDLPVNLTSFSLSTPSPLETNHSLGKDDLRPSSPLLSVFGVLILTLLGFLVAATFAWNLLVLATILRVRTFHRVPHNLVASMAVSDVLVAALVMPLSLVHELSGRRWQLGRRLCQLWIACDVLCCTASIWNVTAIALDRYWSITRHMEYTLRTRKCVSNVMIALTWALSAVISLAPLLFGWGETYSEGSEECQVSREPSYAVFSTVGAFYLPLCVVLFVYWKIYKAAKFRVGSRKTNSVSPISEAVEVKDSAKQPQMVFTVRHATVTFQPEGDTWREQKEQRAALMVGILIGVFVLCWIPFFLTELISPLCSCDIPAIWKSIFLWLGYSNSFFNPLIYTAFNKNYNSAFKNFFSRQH
Sequence of 5-hydroxytryptamine receptor 2B (P41595 whole entry): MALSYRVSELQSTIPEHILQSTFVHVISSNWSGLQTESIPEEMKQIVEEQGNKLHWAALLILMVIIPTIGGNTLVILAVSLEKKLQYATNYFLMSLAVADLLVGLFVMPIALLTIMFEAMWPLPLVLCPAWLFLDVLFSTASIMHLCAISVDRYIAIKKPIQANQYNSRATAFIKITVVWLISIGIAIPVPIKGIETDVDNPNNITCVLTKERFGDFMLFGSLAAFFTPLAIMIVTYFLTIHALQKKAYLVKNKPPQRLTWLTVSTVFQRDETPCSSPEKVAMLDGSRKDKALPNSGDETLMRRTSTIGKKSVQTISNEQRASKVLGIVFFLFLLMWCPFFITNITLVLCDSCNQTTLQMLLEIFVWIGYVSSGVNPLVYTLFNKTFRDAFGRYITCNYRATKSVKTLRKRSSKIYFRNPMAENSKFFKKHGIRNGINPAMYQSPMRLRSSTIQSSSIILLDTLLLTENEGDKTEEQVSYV
Sequence of 5-hydroxytryptamine receptor 6 (P50406 whole entry): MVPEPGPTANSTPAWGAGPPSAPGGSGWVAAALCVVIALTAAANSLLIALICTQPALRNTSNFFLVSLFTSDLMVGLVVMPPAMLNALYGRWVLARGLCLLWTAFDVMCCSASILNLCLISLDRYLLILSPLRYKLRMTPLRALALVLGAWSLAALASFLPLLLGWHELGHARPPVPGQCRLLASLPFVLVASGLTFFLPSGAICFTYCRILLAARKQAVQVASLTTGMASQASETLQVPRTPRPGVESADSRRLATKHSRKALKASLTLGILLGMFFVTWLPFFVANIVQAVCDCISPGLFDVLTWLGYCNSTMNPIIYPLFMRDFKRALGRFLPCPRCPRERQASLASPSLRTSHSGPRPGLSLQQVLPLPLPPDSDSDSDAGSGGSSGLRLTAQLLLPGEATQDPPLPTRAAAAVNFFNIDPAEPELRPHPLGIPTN
Sequence of 5-hydroxytryptamine receptor 7 (P34969 whole entry): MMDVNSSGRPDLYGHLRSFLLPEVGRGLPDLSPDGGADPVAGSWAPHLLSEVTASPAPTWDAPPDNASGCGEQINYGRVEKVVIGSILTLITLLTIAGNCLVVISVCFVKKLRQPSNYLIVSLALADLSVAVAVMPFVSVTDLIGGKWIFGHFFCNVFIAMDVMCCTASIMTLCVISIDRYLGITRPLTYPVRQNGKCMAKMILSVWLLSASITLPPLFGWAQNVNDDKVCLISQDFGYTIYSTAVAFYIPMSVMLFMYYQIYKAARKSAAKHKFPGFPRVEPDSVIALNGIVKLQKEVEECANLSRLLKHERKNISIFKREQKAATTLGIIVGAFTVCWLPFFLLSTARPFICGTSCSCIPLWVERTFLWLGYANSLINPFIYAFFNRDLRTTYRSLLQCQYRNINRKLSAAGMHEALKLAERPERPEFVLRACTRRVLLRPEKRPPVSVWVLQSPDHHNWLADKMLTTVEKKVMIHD
Sequence of 5-hydroxytryptamine receptor 1B (P28222 whole entry): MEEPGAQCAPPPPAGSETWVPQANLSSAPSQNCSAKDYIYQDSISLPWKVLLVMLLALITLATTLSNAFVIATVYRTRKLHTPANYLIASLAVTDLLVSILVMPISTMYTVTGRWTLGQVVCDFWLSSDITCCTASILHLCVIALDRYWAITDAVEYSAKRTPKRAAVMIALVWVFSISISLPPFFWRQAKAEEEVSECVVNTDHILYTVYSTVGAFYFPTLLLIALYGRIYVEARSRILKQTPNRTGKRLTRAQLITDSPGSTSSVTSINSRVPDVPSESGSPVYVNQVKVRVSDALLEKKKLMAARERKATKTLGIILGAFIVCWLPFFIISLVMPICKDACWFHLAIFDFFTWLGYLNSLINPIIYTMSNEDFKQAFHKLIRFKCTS

dose excreted at 24 h [2]: ~100% | dose excreted at 24 h [3]: ~100% | IC50 [4]: 25.1 µM | IC50 [6]: > 10 µM | half-life at 10 µM [7]: 0.356 h | Efficacy [8]: 99.6% | microsomal CLint at 10 µM [9]: 5 µL/min/mg | microsomal CLint at 10 µM [10]: 3 µL/min/mg | recovery at 4 h, 10 µM [11]: 83.1% | microsomal CLint at 10 µM [12]: 64.8 µL/min/mg | Ki [13]: 0.0131 µM | IC50 [14]: > 10 µM | half-life at 10 µM [15]: 7.7 h | half-life at 10 µM [16]: 4.62 h | IC50 [17]: > 1 µM | half-life [18]: 3.06 h | IC50 [19]: > 10 µM | half-life [21]: > 24 h | IC50 [22]: > 10 µM | IC50 [23]: > 1 µM | half-life [25]: > 24 h | IC50 [26]: > 10 µM | IC50 [27]: > 1 µM | Cmax [29]: 8.5 ng/mL | Papp at 4 h, 10 µM [30]: 3.1 ×10⁻⁶ cm/s | EC50 [31]: 0.00041 µM | IC50 [32]: > 10 µM
SMILES: Nc1c(Cl)cc(C(=O)NCC2CCN(CCCCCC(=O)NCCOCCOCCNC(=O)NCCCCNC(=O)NCCOCCOCCNC(=O)CCCCCN3CCC(CNC(=O)c4cc(Cl)c(N)c5c4OCC5)CC3)CC2)c2c1CCO2
IC50 [1]: > 100 µM | Activity (Mus musculus [5]): Dose-dependent-effect; Superior To Prucalopride Succinate At 10 Mg/Kg | Activity (Mus musculus [20]): Active; Efficacy Comparable To Prucalopride Succinate At 10 Mg/Kg | Activity (Mus musculus [24]): Active | Activity (Mus musculus [28]): Active; Efficacy Comparable To Prucalopride Succinate At 10 Mg/Kg
